Results as given in patent publication US20260085315A1, “POLYNUCLEOTIDE COMPOSITIONS AND METHODS FOR TREATMENT OF CANCER” (APTAH BIO, INC., priority 2023, published 2026).
Values joined by “and” are separate entries in the source; they are usually repeats but may differ in a detail not shown here. Identical values can stand only once. “Also recorded” adds a separate entry of the source. d = 2'-deoxy (DNA); m = 2'-O-methyl

Key:
[1] = tested on: MCF-7 cell line; assay: Mitochondrial membrane potential (MitoTracker Red); assay type: cell-based, Human; settings: 0.25, 0.5, 1 μM; 24 hours; vs non-treated cells
Procedure: The evaluation of ASMO1 APT20TTMG effect on the mitochondrial membrane potential of MCF-7 cell line was performed using MitoTracker Red dye. MitoTracker Red is a cationic fluorophore that accumulates in the mitochondria matrix, providing an indication of the viability and integrity of that organelle.
For this, cells were cultured overnight in 24-well plates at a density of 1×10^5 cells/well, aiming cell adhesion. After that, cells were treated with three concentrations of APT20TTMG (0.25, 0.5, and 1 μM) for 24 hours. After treatment with the ASMO1, cells were collected using a 0.05% trypsin solution and washed twice with 2.0 mL of PBS buffer. Finally, samples were incubated with 500 μL of MitoTracker Red fluorescent dye solution at a concentration of 50 nM for 15 minutes in an incubator. Then the cells were again washed twice with 2 mL of PBS and, subsequently, analyzed in a flow cytometer (BD FACSCanto II, BD Biosciences) through the acquisition of 10.000 gated events/sample.

[2] = tested on: U87-MG cell line; assay: Mitochondrial membrane potential; assay type: cell-based, Human; settings: 0.25 and 0.5 μM
[3] = tested on: U87MG (Human Glioblastoma); assay: BrdU cell proliferation assay; assay type: cell-based
Procedure: In vitro effects of APT20TTMG on viability and proliferation of human cancer cell line U87MG (Human Glioblastoma) were also evaluated by MTT and BrdU assays, respectively. Cells were treated with APT20TTMG and Reference Items in technical triplicates (Experiment was done in 3 different sets) at various concentrations for 48 h, 96 h, and 144 h. APT20TTMG and Reference Items were read after every 48 h.
As shown in FIGS. 32-33, A MTT assay (FIG. 32) was also performed with another five different concentrations of APT20TTMG (0.003, 0.03, 0.3, 3, and 30 μM) and at 48, 96, and 144 hours of incubation. […] Finally, to confirm whether APT20TTMG is a cytotoxic or cytostatic molecule considering its ability to reduce cellular viability in certain concentrations, a cell proliferation assay (FIG. 33) with the U87-MG cell line was also performed in the same conditions as the MTT assay. […] Cells were plated and treated with 5 different concentrations (0.003, 0.03, 0.3, 3, and 30 μM). BrdU assay was performed after 48, 96, or 144 hours of incubation. Data are plotted as a percentage (%) of cell viability compared to the negative control group (vehicle). Results are expressed as Mean±SEM of three independent experiments performed in three technical replicates. Statistical analysis was performed using one-way ANOVA followed by Dunnett's multiple comparison test. *p<0.05, **p<0.01, ***p<0.001, ****p<0.0001.

[4] = Body weight in xenograft study; assay type: in vivo, athymic nude mice; settings: 20 mg/kg i.v. q3d, 3 weeks
Procedure: Body weight and tumor size were measured weekly twice using digital caliper. At termination, blood was collected through retro-orbital route. Serum/plasma was separated and stored at deep freezer (−20° C.). Post blood collection, animals were humanely sacrificed by CO2 asphyxiation as per latest guidelines issued by CPCSEA. All the vital organ (brain, kidney, liver, lungs, heart) and tumor were dissected out. Vital organs were fixed in 10% NBF and stored. Tumor tissue was dissected out, weighed and portion of tumor tissue was fixed in 10% NBF and another portion is snap frozen and stored at deep freezer (−80° C.).
As shown in FIG. 34A-C, tumor fragments from the U-87MG cell line were implanted in the animals and once the tumor size reached ˜100 mm^3 animals were randomized into 3 experimental groups (G1, G2, and G3). G1: Vehicle, (G2) Reference Item Temozolomide, and (G3) APT20TTMG for a total of 22 days. (A) The tumor volume of the animals was measured twice/a week. (B) Animals were weighed throughout the experiment and the change in weight gain compared to pre-treatment weight was plotted. (C) After the euthanasia of the animals, the tumors were removed and weighed.

[5] = tested on: Human Glioblastoma Cancer (U-87MG) xenograft; assay: Histopathology of tumor samples with scoring; assay type: in vivo, athymic nude mice; set-up: key to Score: Grade: 1: I; 2: II; 3: III; 4: IV; key to Score: Connective tissue stroma: 1: Minimal Fibrosis; 2: Mild Fibrosis; 3: Moderate Fibrosis; 4: Prominent; key to Score: N:C ratio: 3: High; 2: Low to High; 1: Low; key to Score: Apoptosis / Score: Lipid content: 4: Minimal; 3: Mild; 2: Moderate; 1: Prominent
Text: (§1) The fixed tissues were processed for routine paraffin embedding followed by sectioning (3-6 micron). The sections were stained with hematoxylin and eosin. The prepared slides were examined under microscope by the study pathologist to record histopathological findings in tumor samples, related to capsule formation, cell type, connective tissue stroma, apoptosis, necrosis, lipid content, nucleus-to-cytoplasmic (N:C) ratio, nuclei mitotic figures, tumor grade, and level of differentiation. Each histopathological finding and tumor volume were assigned a score ranging from 1 to 4 (Table 7). The sum of these scores for each sample was used to infer the tumor aggressiveness.

[6] = tested on: Human Glioblastoma Cancer (U-87MG) xenograft; assay: Histopathology of tumor samples with scoring; assay type: in vivo, athymic nude mice; set-up: key: 1: Minimal Fibrosis; 2: Mild Fibrosis; 3: Moderate Fibrosis; 4: Prominent; settings: individual animals; G3 APT20TTMG, G2 TMZ
Text: as §1

[7] = individual animals, G3 APT20TTMG, G2 TMZ

With “APT20TTMG: engineered polynucleotide ASMO1, 24 nt, SEQ ID NO: 3 gtccactaacctttcaggccagcg; targeting moieties 5′-GTCCA-3′ and 5′-CG-3′, U1 snRNP recruiting moiety (GTCCACTAACCTTTCAGGCCAGCG; sugars from the 5' end m5 d14 m5, all phosphorothioate, methylation of C and T or U not given here)” the mitochondrial membrane potential [1] was “no change in mitochondrial membrane potential”, the “mitochondrial membrane potential labeling” value [2] was “reducing the labeling” and the “cell proliferation (BrdU)” value ([3]; 0.03 μM, first 48 hours) was “increase in cell proliferation”. The “cell proliferation (BrdU)” value ([3]; highest concentrations (0.3, 3, 30 μM), 144 hours) was “significant reduction in cell proliferation”, the “cell proliferation (BrdU)” value ([3]; highest concentrations (0.3, 3, 30 μM), first 48 hours) was “temporary increase in cell proliferation” and the “cell proliferation (BrdU)” value ([3]; lowest concentrations (0.003 and 0.03 μM), 144 hours) was “statistically significant decrease in proliferation”. For the same substance, the “body weight of animals” value [4] was “gain weight throughout the experiment”, the “total score of histopathological findings and tumor volume” value ([5]; G3 20 mg/kg i.v. vs G1 vehicle) was “statistically lower scores than G1 group” and the “histopathological findings compared to G1 (vehicle control)” value ([5]; G3 APT20TTMG 20 mg/kg i.v., G2 TMZ 5 mg/kg p.o.) was “less anaplastic features (lower grade) and cellular atypia, with fewer mitotic figures”. The “Histopathological findings: Cell Type” value ([5]; individual animals) was “Cell Type - Irregular/spindle type cells; also recorded: Cell Type - Polymorphic (i.e., Moderately differentiated”, the “Histopathological findings (whole sample)” value ([5]; individual animals, G3) was “Only diffused necrotic area was observed” and the “Score: Capsule” value ([5]; individual animals, G3) was 1. For the same substance, the “Histopathological findings: Capsule” value ([5]; individual animals, G3 APT20TTMG 20 mg/kg i.v. q3dx7, G2 TMZ 5 mg/kg p.o. qdx21) was “Capsule - Present; also recorded: Capsule - Absent”, the “Histopathological findings: Apoptosis” value [5, 7] was “Apoptosis - Mild; also recorded: Apoptosis - Moderate” and the “Histopathological findings: Connective tissue stroma” value [5, 7] was “Connective tissue stroma - Moderate Fibrosis; also recorded: Connective tissue stroma - Mild Fibrosis”. The “Histopathological findings: Grade” value [5, 7] was “Grade- 2; also recorded: Grade- 1; also recorded: Grade- 3”, the “Histopathological findings: Lipid content” value [5, 7] was “Lipid content - Moderate; also recorded: Lipid content - Minimal; also recorded: Lipid content - Mild” and the “Histopathological findings: Mitotic figures” value [5, 7] was “Mitotic figures - Active (Few in number); also recorded: Mitotic figures - Active (Moderate in number); also recorded: Mitotic figures - Active (Large in number)”. For the same substance, the “Histopathological findings: N:C ratio” value [5, 7] was “N:C ratio - Low to High (Intermediate)”, the “Histopathological findings: Necrosis” value [5, 7] was “Necrosis - Prominent; also recorded: Necrosis - Moderate; also recorded: Necrosis - Mild” and the “Histopathological findings: Nuclei” value [5, 7] was “Nuclei - Hyperchromatic”. For the same substance, the “Histopathological findings: level of differentiation” value [5, 7] was “Moderately differentiated; also recorded: Well differentiated”, the “Score: Apoptosis” value [5, 7] was 3 (4×) and 2 (2×) and the “Score: Connective tissue stroma” value [5, 7] was 3 (4×) and 2 (2×). The “Score: Grade” value [5, 7] was 2 (4×) and 1 and 3, the “Score: Lipid content” value [5, 7] was 3 (3×) and 1 and 2 (2×) and the “Score: N:C ratio” value [5, 7] was 1 (3×) and 2 (2×) and 3. For the same substance, the “Score: Volume Tumor” value [5, 7] was 1 (<500) (2×) and 2 (500-1000) (3×) and 3 (1000-1500) and the “Score: Necrosis” value [6] was 4.
